In patent US7358236B1 (priority 2002, dated 2008):
Read-outs that look alike come from different tables or passages of the source.

What was measured:
heart tissue = test: Histopathology of heart tissue after single dose VTA, and protective effect of propranolol; details: for Heart histopathology with propranolol pretreatment: 2 mg/kg Propranolol Hydrochloride 1 hour prior to CA-4DP 100 mg/kg
[1] = rat, in vivo
tumor blood flow = details: cited from earlier work

Row | Compound | MABP (antihypertensive co-administered with CA-4DP 30 mg/kg i.p., 1 hour after CA-4DP dosing) | Heart Rate (antihypertensive co-administered with CA-4DP 30 mg/kg i.p., 1 hour post CA-4DP dosing) | Heart histopathology with propranolol pretreatment (heart tissue; 6 or 24 hours post-treatment) | Heart histopathology with propranolol pretreatment (heart tissue; 4 days) | MABP stabilized level [1] | Blood flow in vital tissues (heart, kidney, small intestine) (tumor blood flow; 100 mg/kg, rat) | Reduction in tumor blood flow (tumor blood flow; 100 mg/kg, rat) | Mean Arterial Blood Pressure change (tumor blood flow; almost immediately following administration) | Heart Rate (rat, in vivo) | Increase of MABP versus control animals (rat, in vivo, ip, 30 mg/kg) | MABP (rat, in vivo, ip, 30 mg/kg) | Histopathological changes in the heart (heart tissue; CA-4DP 100 mg/kg i.v. single dose, overall) | Histopathological changes in the heart (heart tissue; CA-4DP 100 mg/kg i.v., at 6 hours) | Histopathological changes in the heart (heart tissue; CA-4DP 100 mg/kg i.v., at 24 hours) | Histopathological changes in the heart (heart tissue; CA-4DP 100 mg/kg i.v., at 4 days)
1 | CC(C)NCC(O)COc1cccc2ccccc12 (racemic) [propranolol, 1-[ispropylamino]3-[1-napthyloxy]-2-propanol hydrocholoride] | 80.2 mmHg | 248.5 bpm | no abnormal CA-4DP-related histopathology | cardiac tissue remained healthy | – | – | – | – | – | – | – | – | – | – | –
2 | Combretastatin A-4 Disodium Phosphate Prodrug [CA-4DP] | – | – | – | – | 110 mmHg | maintained at normal levels | 100 fold | substantial but transient increase | 265.6 bpm | 72% | 107.9 mmHg | necrosis and degeneration of cardiac cells in some localized areas | some blood vessels in the heart tissue were observed dilated | Inflammation cells infiltrated the heart tissue | loss of striation, fragmentation, a manifestation of necrosis and degeneration
